Our source for the TGI and GI50 values is PubChem BioAssay (NCI).

Common to all, as to assay: NCI-60 cell line screen, 48 h
In assay [1] the test system is IGROV1 ovarian.
The subject of assay [2] is OVCAR-3 ovarian.
In assay [3] the test system is COLO 205 colon.
For assay [4], the system named is HCT-116 colon.
Assay [5] relates to SR leukemia.
The subject of assay [6] is T-47D breast.
The subject of assay [7] is 786-0 renal.
Assay [8] concerns ACHN renal.
Assay [9] deals with NCI/ADR-RES ovarian.
Assay [10] has as its system MALME-3M melanoma.
The test system of assay [11] is DU-145 prostate.

The structures appear in SMILES notation. “And” between values parts separate entries of the source, which are not always exact repeats. Identical values can stand only once.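 Each compound was tested at five concentrations against cells in 96-well plates for 48 hours. GI50 = concentration required for 50% inhibition of growth. TGI is the concentration that stops growth completely.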

Turning to `C/C(=N\O)c1cccc[n+]1Cc1ccccc1`, the TGI in assay [1], in assay [2], in assay [3], in assay [4], in [5] and in assay [6] was over 100 µM in each case. The TGI in assay [7], in assay [8], in assay [9], in [10] and in assay [11] was over 100 µM each time.

On to `COc1ccccc1C(=O)NCC1CCCN2CCCCC12` (configuration not stated), for which the TGI in assay [1], in [2], in [3], in assay [4], in assay [5] and in assay [6] was over 100 µM in each case. Also, the TGI in assay [7], in [8], in [9], in assay [10] and in assay [11] was over 100 µM throughout.

On to `Cc1nc2sc(C(=O)c3ccc(Cl)cc3)c(N)c2c(-c2ccccc2Cl)c1C(=O)Nc1ccccc1`, for which the TGI in assay [1] was over 70.5 µM; in assay [2], 33.9 µM; in [3], 37.4 µM; in assay [4] it was 26.8 µM; in [5] it was 58.2 µM; in [6] it was 19 µM. In addition, the TGI in assay [7] came to 27.6 µM; in assay [8], 67.7 µM; in assay [9], 60 µM; in assay [10], 29.2 µM; in [11], 61 µM.

As for `O=C1CSC(c2ccc(Cl)cc2Cl)N1c1ccc(Oc2ccc(Cl)cc2)c(Cl)c1` (configuration not stated), the TGI was over 100 µM in [1]; 65.9 µM in assay [2]; 61 µM in [3]; 36.2 µM in assay [4]; 42.8 µM in [5]; 90.1 µM in assay [6]. In addition, the TGI in assay [7] was 50.1 µM; in assay [8], over 100 µM; in [9], 55.1 µM; in assay [10], 38.2 µM; in assay [11], over 100 µM.

`C(#CP(c1ccccc1)c1ccccc1)P(C#CP(c1ccccc1)c1ccccc1)c1ccccc1`: the TGI in assay [1], in assay [2], in [3], in assay [4], in assay [5] and in assay [6] was over 100 µM each time. The TGI in [7], in assay [8], in [9], in assay [10] and in [11] was over 100 µM in each case.

Regarding `O=C(/C(=C\I)c1ccccc1)c1ccccc1`, the TGI came out at 26.3 µM in assay [1]; 5.71 µM in assay [2]; 11.9 µM in assay [3]; 26.2 µM in assay [4]; 41 µM in assay [5]; 6.02 µM in assay [6]. The TGI in assay [7] is 14.6 µM; in [8], 25.7 µM; in assay [9] it was 44.1 µM; in [10], 21.2 µM; in assay [11], 19.2 µM.

As for `O=C(O)/C=C/c1ccc2c(c1)CC1(Cc3ccccc3C1)C2`, the TGI in assay [1] is over 100 µM; in [2], over 100 µM; in assay [3] it was 52.3 µM; in [4], 51.4 µM; in [5], 62.3 µM; in assay [6], over 100 µM. In addition, the TGI in [7], in assay [8], in [9] and in [10] was over 100 µM throughout.

`COc1ccc(NCC(=O)Nn2c(-c3ccccc3)nc3ccccc3c2=O)cc1`: the TGI in [1] was over 100 µM; in assay [2], over 100 µM; in assay [3] it was over 100 µM; in [4] it was over 10 µM; in assay [5], over 100 µM; in assay [6], over 100 µM. Besides, the TGI was 73.6 µM in assay [7]; over 100 µM in [8]; 59.1 µM in assay [9]; 70.2 µM in assay [10]; over 100 µM in assay [11].

With `CCOC(=O)c1c(SC(=O)c2ccc(OC)cc2)n(-c2ccccc2)c(=S)n(-c2ccccc2)c1=O`, the TGI was 38 µM in assay [1]; over 100 µM in [2]; over 100 µM in assay [3]; 47.9 µM in [4]; over 100 µM in assay [5]; over 100 µM in assay [6]. Moreover, the TGI in [7], in [8], in assay [9], in [10] and in assay [11] was over 100 µM throughout.

`CC1OC2OC3C(OCC(O)C3O)OC(=O)[C@]34CCC(C)(C)CC3C3=CCC5[C@@]6(C)C[C@H](O)[C@H](OC7OC(CO)C(O)C(O)C7OC7OCC(OC(=O)CC(C)(O)CC(=O)OC1C(O)C2O)C(O)C7O)[C@@](C)(CO)C6CC[C@@]5(C)[C@]3(C)CC4` (some centres not stated): the TGI in [1] amounted to 16.9 µM; in [2], 20.7 µM; in assay [3], 4.39 µM; in assay [4], 17.4 µM; in [5], 20.3 µM; in assay [6], 17.6 µM. For the same compound, the TGI amounted to 25.6 µM in [7]; 18.3 µM in assay [8]; 28.3 µM in [9]; 12.3 µM in assay [10]; 14.7 µM in [11].

In the case of `O=C(O)[C@H](CCC[C@H]1C(=O)O[C@H](c2ccccc2)[C@H](c2ccccc2)N1C(=O)OCc1ccccc1)N[C@@H](c1ccccc1)[C@H](O)c1ccccc1`, the TGI is over 100 µM in [1]; 48.4 µM in assay [2]; over 100 µM in assay [3]; 44.9 µM in [4]; 52.3 µM in assay [5]; over 100 µM in [6]. For the same compound, the TGI in [7] was over 100 µM; in [8], over 100 µM; in assay [9], over 100 µM; in assay [10], 42.2 µM; in [11], over 100 µM.

As for `NC(Cc1ccc2nc3c4ccccc4c(=O)cc-3oc2c1)C(=O)O` (configuration not stated), the TGI in [1], in assay [2], in assay [3], in [4], in assay [5] and in assay [6] was over 100 µM throughout. Besides, the TGI was over 100 µM in assay [7]; over 100 µM in assay [8]; over 100 µM in assay [9]; 36.8 µM in assay [10]; over 100 µM in assay [11].

Consider `O=C1CSC(c2cccc(Cl)c2)N1c1ccc(-c2ccc(-n3c(-c4ccccc4)nc4ccccc4c3=O)cc2)cc1` (configuration not stated), for which the TGI was over 100 µM in [1]; over 100 µM in assay [2]; over 100 µM in assay [3]; over 100 µM in [4]; over 100 µM in [5]; 97.9 µM in assay [6]. For the same compound, the TGI in [7], in assay [8], in [9], in assay [10] and in [11] was over 100 µM in each case.

Take `OC1(c2ccc(Cl)cc2)c2ccccc2-c2nc3ccccc3n21` (configuration not stated): the TGI in assay [1], in assay [2], in [3], in assay [4], in assay [5] and in assay [6] was over 100 µM each time. For the same compound, the TGI in assay [7], in [8], in [9] and in assay [11] was over 100 µM throughout.

For the compound `C#CC(O)/C=C/CCCCCCC#CC/C=C\CC#CCCCCCCCCC(O)C#C` (configuration not stated), the TGI in assay [1] is 1.12 µM; in assay [2], 24.5 µM; in assay [3] it was 7.41 µM; in [4], 7.77 µM; in assay [5], over 22 µM; in assay [6], 36.3 µM. For the same compound, the TGI came out at 5.01 µM in assay [7]; 29.5 µM in [8]; 10.2 µM in assay [9]; 4.41 µM in [10]; 24.1 µM in assay [11].

As to `Cc1cc2nc3c(C#N)c4c(c(-c5ccc(Cl)cc5)n3c2cc1C)CCC4`, the TGI in assay [1] stood at 36.2 µM; in assay [2], 40.7 µM; in [3], 39.1 µM; in assay [4], 32.7 µM; in assay [5], 45.7 µM; in assay [6] it was 52.1 µM. For the same compound, the TGI was 35 µM in assay [7]; 59.5 µM in [8]; over 100 µM in assay [9]; 46.8 µM in [10]; 44 µM in [11].

On to `CN(C)c1ccc(/C=C/c2sc3ccccc3[n+]2C)cc1`, for which the GI50 is 4.29 µM and 1.21 µM in assay [1]; 0.185 µM in assay [3]; 2.07 µM and 0.268 µM in assay [5]; 2.57 µM and 0.532 µM in assay [11]. Also, the TGI in assay [1] is 19.7 µM and 15.3 µM; in assay [2], 3.82 µM and 2.86 µM; in assay [3] it was 0.377 µM; in [4], 10.9 µM and > 100 µM; in [5], 8.87 µM and 2.6 µM; in [6] it was 11.1 µM and 30.5 µM. In addition, the TGI in assay [7] was 14.9 µM and > 100 µM; in [8], 9.85 µM and 7.49 µM; in assay [9] it was over 100 µM; in assay [10], 12.1 µM and 6 µM; in assay [11], 13.2 µM and 11.2 µM.

With `CCC(C)C1=C(O)[N+]2([O-])Oc3ccc(-c4c(O)c(O)c(-c5ccc(OC(C)=O)cc5)c(OC(C)=O)c4OC(C)=O)cc3OC2(C(C)CC)C(=O)N1O` (configuration not stated), the TGI in assay [1], in assay [2], in assay [3], in assay [5], in [6] and in assay [7] was over 50 µM throughout. Further, the TGI in assay [8], in assay [9], in assay [10] and in assay [11] was over 50 µM in each case.

Turning to `CCOC(=O)C1(C#N)CC1`, the TGI in assay [1], in assay [3], in assay [4], in [5], in assay [6] and in assay [7] was over 100 µM each time. Besides, the TGI in assay [8], in assay [9], in [10] and in assay [11] was over 100 µM throughout.

Regarding `Nc1nc(Cl)c(Cl)c(NCC2(O)CCC2)n1`, the TGI in assay [1] was over 100 µM; in assay [2], over 100 µM; in [4] it was over 100 µM; in assay [5] it was over 100 µM; in [6], 64.2 µM; in [7], over 100 µM. Further, the TGI in assay [8], in [9], in [10] and in assay [11] was over 100 µM in each case.

In the case of `NCCN1C(=O)c2ccccc2C1c1ccc(Cl)cc1` (configuration not stated), the TGI in assay [1], in [2], in [3], in assay [4], in assay [5] and in assay [6] was over 100 µM throughout. Moreover, the TGI in [7], in assay [8], in [9] and in [11] was over 100 µM throughout.

With `Cn1cc(S(=O)(=O)NC(=O)Nc2ccc(Cl)cc2)c(=O)c2ccc(F)cc21`, the TGI in assay [1], in assay [3], in assay [4], in [5], in [6] and in assay [7] was over 100 µM in each case. Besides, the TGI in [8], in assay [9], in [10] and in assay [11] was over 100 µM each time.

For the compound `COc1cc2c(/C=C3/C(=O)N(C)c4ccc(O)cc43)c(Cl)[nH]c2cc1C`, the TGI in [1] turned out to be 19.9 µM; in assay [2], 0.597 µM; in [3], 2.37 µM; in assay [5] it was 1.23 µM; in assay [6], 5.93 µM; in assay [7], 15 µM. In addition, the TGI in assay [8] came to 16.8 µM; in assay [9] it was 5.59 µM; in [11], 18.4 µM.

Take `O=C(/C=C(\C(=O)c1cccs1)c1cccs1)c1ccc(C(=O)/C=C(\C(=O)c2cccs2)c2cccs2)cc1`: the TGI in assay [1], in assay [3], in [4], in [5], in assay [6] and in assay [7] was over 100 µM in each case. Further, the TGI in assay [8], in [9] and in [11] was over 100 µM throughout.
